{"source": "patent US20100310563A1", "about": "“METHODS FOR TREATING INDUCED CELLULAR PROLIFERATIVE DISORDERS” (priority 2007, published 2010)", "tested_on": "phosphorylated JAK2 in GFP positive peripheral blood granulocytes of the JAK2V617F mouse", "test": "FACS analysis of intracellular JAK2 phosphorylation in peripheral blood granulocytes", "assay_type": "cell-based", "settings": "with IL-3 and G-CSF stimulation for 60 minutes, GFP-positive granulocytes of a JAK2V617F mouse, FIG. 4B bottom", "protocol": "White cells from bone marrow and spleen were resuspended in staining buffer (BD Biosciences). Aliquots of 1×10^6 cells were stained for 20 minutes with conjugated monoclonal antibodies. Cells were washed in staining buffer and analyzed by FACS. For FACS analysis of intracellular JAK2 phosphorylation, peripheral blood of one JAK2V617F mouse and three normal BALB/c mice were collected. WBC from normal BALB/c mice were pooled together. Cells were split into three aliquots and resuspended in RPMI 1640 (Life Technologies) containing 0.5% BSA and incubated for 15 hours. Following incubation, one aliquot was stimulated with 10 ng/mL IL-3 plus 10 ng/mL granulocyte colonystimulating factor (G-CSF; StemCell) and second aliquot was stimulated with 10 ng/mL IL3, 10 ng/mL G-CSF, and 10 Amol/L AG-490 (Calbiochem) for 60 minutes and third aliquot was left unstimulated. Cells ([…]) were resuspended in 50 AL staining buffer (1% BSA and 0.1% sodium azide in PBS) and permeabilized using Fix&Perm cell permeabilization kit (Caltag Laboratories, Burlingame, Calif. and An der Grub, Vienna, Austria). The granulocyte population was selected by forward and side scatter\nTo test if the mutant JAK2V617F kinase in murine leukocytes is constitutively active, peripheral blood granulocytes was analyzed by FACS for phosphorylated JAK2. […]", "data": [{"smiles": "N#C/C(=C/c1ccc(O)c(O)c1)C(=O)NCc1ccccc1", "note": "[AG490]", "values": [{"measurement": "phosphorylated JAK2 levels", "value": "reduced phosphorylated JAK2 levels below baseline"}]}]}
